Data published in patent US20060252807A1, “Novel ortho-terphenyl inhibitors of p38 kinase and methods of treating inflammatory disorders” (Kalypsys, Inc., priority 2005, published 2006).

Biological target: T1, active p38 alpha enzyme (Upstate Biotechnology) (Homo sapiens, UniProt Q16539)
T1 construct: purchased Upstate Biotechnology
Experiment: p38α biochemical assay (ATP turnover, luminescent detection, Cambrex PKlight)
Details: p38α kinase; Table 1 Biological Activity
Summary of the method: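 Luminescent ATP-depletion readout measures total ATP turnover by p38α phosphorylating whole MapkapK2 protein. ATP 1.4 uM final; 30C, 2 h. Compounds delivered from DMSO.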

T1 sequence (Q16539 whole entry): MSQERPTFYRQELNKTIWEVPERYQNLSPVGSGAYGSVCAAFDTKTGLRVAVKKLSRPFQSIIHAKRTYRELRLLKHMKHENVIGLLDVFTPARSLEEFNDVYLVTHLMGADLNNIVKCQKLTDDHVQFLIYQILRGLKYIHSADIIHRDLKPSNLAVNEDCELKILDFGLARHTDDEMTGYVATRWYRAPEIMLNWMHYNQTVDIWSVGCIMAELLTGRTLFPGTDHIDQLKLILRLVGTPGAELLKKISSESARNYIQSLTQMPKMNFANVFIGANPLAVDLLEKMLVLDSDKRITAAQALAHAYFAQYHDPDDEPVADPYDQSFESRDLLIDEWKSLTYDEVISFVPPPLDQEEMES

Compound	IC50 [µM]
CC(C)NC(=O)c1csc(-c2oc(CNCCN3CCOCC3)nc2-c2ccc(F)cc2)n1 [Example 1110]	> 1
CCOC(=O)CC(C)NCc1nc(-c2ccc(F)cc2)c(-c2nc(C(=O)NC(C)C)cs2)o1 (stereo not drawn) [Example 1111]	> 1
CC(C)NC(=O)c1csc(-c2oc(CNC3CCc4ccccc43)nc2-c2ccc(F)cc2)n1 (stereo not drawn) [Example 1112]	> 1
CC1=CCC(CCNCc2nc(-c3ccc(F)cc3)c(-c3nc(C(=O)NC(C)C)cs3)o2)C=C1 (stereo not drawn) [Example 1113]	> 1
Cc1ccc(C)c(CNCc2nc(-c3ccc(F)cc3)c(-c3nc(C(=O)NC(C)C)cs3)o2)c1 [Example 1114]	> 1
Cc1ccc([C@H](C)NCc2nc(-c3ccc(F)cc3)c(-c3nc(C(=O)NC(C)C)cs3)o2)cc1 [Example 1115]	> 1
Cc1ccc([C@@H](C)NCc2nc(-c3ccc(F)cc3)c(-c3nc(C(=O)NC(C)C)cs3)o2)cc1 [Example 1116]	> 1
CC(C)NC(=O)c1csc(-c2oc(CNCC(C)c3ccccc3)nc2-c2ccc(F)cc2)n1 (stereo not drawn) [Example 1117]	> 1
CC(C)NC(=O)c1csc(-c2oc(CNCC(C)c3ccccc3)nc2-c2ccc(F)cc2)n1 (stereo not drawn) [Example 1118]	> 1
CC(C)NC(=O)c1csc(-c2oc(CNCCCc3ccccc3)nc2-c2ccc(F)cc2)n1 [Example 1119]	> 1
Cc1ccc(CNCc2nc(-c3ccc(F)cc3)c(-c3nc(C(=O)NC(C)C)cs3)o2)cc1C [Example 1120]	> 1
CC(C)NC(=O)c1csc(-c2oc(CNC(C)Cc3ccncc3)nc2-c2ccc(F)cc2)n1 (stereo not drawn) [Example 1121]	> 1
CC(C)NC(=O)c1csc(-c2oc(CNCCc3ccc(O)cc3)nc2-c2ccc(F)cc2)n1 [Example 1122]	≤ 1
CC(C)NC(=O)c1csc(-c2oc(CNCCOc3ccccc3)nc2-c2ccc(F)cc2)n1 [Example 1123]	> 1
COc1ccccc1CNCc1nc(-c2ccc(F)cc2)c(-c2nc(C(=O)NC(C)C)cs2)o1 [Example 1124]	> 1
COc1ccc(CNCc2nc(-c3ccc(F)cc3)c(-c3nc(C(=O)NC(C)C)cs3)o2)cc1 [Example 1125]	> 1
COc1cccc(CNCc2nc(-c3ccc(F)cc3)c(-c3nc(C(=O)NC(C)C)cs3)o2)c1 [Example 1126]	> 1
CC(C)NC(=O)c1csc(-c2oc(CNCCc3ccc(F)cc3)nc2-c2ccc(F)cc2)n1 [Example 1127]	> 1
CC(C)NC(=O)c1csc(-c2oc(CNCCc3ccccc3F)nc2-c2ccc(F)cc2)n1 [Example 1128]	> 1
CC(C)NC(=O)c1csc(-c2oc(CNCCc3cccc(F)c3)nc2-c2ccc(F)cc2)n1 [Example 1129]	> 1
CC(C)NC(=O)c1csc(-c2oc(CNCc3cccc(Cl)c3)nc2-c2ccc(F)cc2)n1 [Example 1130]	> 1
CC(C)NC(=O)c1csc(-c2oc(CNCc3ccccc3Cl)nc2-c2ccc(F)cc2)n1 [Example 1131]	> 1
CC(C)NC(=O)c1csc(-c2oc(CNCc3ccc(Cl)cc3)nc2-c2ccc(F)cc2)n1 [Example 1132]	> 1
CC(C)NC(=O)c1csc(-c2oc(CNCCCN3CCCC3=O)nc2-c2ccc(F)cc2)n1 [Example 1133]	> 1
CC(C)NC(=O)c1csc(-c2oc(CNCc3ccc(F)cc3F)nc2-c2ccc(F)cc2)n1 [Example 1134]	> 1
CC(C)NC(=O)c1csc(-c2oc(CNCc3ccc(F)c(F)c3)nc2-c2ccc(F)cc2)n1 [Example 1135]	> 1
CC(C)NC(=O)c1csc(-c2oc(CNCc3cc(F)cc(F)c3)nc2-c2ccc(F)cc2)n1 [Example 1136]	> 1

Compound	IC50 [µM]
CC(C)NC(=O)c1csc(-c2oc(CNCCCN3CCOCC3)nc2-c2ccc(F)cc2)n1 [Example 1137]	> 1
CC(C)NC(=O)c1csc(-c2oc(CNCCN(C(C)C)C(C)C)nc2-c2ccc(F)cc2)n1 [Example 1138]	> 1
CC(C)NC(=O)c1csc(-c2oc(CNC3CCCc4ccccc43)nc2-c2ccc(F)cc2)n1 (stereo not drawn) [Example 1139]	> 1
CC(C)NC(=O)c1csc(-c2oc(CNC(C)CCc3ccccc3)nc2-c2ccc(F)cc2)n1 (stereo not drawn) [Example 1140]	> 1
CC(C)NC(=O)c1csc(-c2oc(CNCc3ccc(C(C)C)cc3)nc2-c2ccc(F)cc2)n1 [Example 1141]	> 1
CC(C)NC(=O)c1csc(-c2oc(CNCc3ccc4c(c3)OCO4)nc2-c2ccc(F)cc2)n1 [Example 1142]	> 1
COc1cccc(CCNCc2nc(-c3ccc(F)cc3)c(-c3nc(C(=O)NC(C)C)cs3)o2)c1 [Example 1143]	> 1
CC(C)NC(=O)c1csc(-c2oc(CN[C@H](CO)Cc3ccccc3)nc2-c2ccc(F)cc2)n1 [Example 1144]	> 1
COc1ccc(CCNCc2nc(-c3ccc(F)cc3)c(-c3nc(C(=O)NC(C)C)cs3)o2)cc1 [Example 1145]	> 1
COc1ccccc1CCNCc1nc(-c2ccc(F)cc2)c(-c2nc(C(=O)NC(C)C)cs2)o1 [Example 1146]	> 1
CCOc1ccccc1CNCc1nc(-c2ccc(F)cc2)c(-c2nc(C(=O)NC(C)C)cs2)o1 [Example 1147]	> 1
COc1ccc(NCc2nc(-c3ccc(F)cc3)c(-c3nc(C(=O)NC(C)C)cs3)o2)cc1OC [Example 1148]	> 1
CC(C)NC(=O)c1csc(-c2oc(CNCCc3ccccc3Cl)nc2-c2ccc(F)cc2)n1 [Example 1149]	> 1
CC(C)NC(=O)c1csc(-c2oc(CNCCc3ccc(Cl)cc3)nc2-c2ccc(F)cc2)n1 [Example 1150]	> 1
CC(C)NC(=O)c1csc(-c2oc(CNCCc3cccc(Cl)c3)nc2-c2ccc(F)cc2)n1 [Example 1151]	> 1
CC(C)NC(=O)c1csc(-c2oc(CNC3CC(C)(C)NC(C)(C)C3)nc2-c2ccc(F)cc2)n1 [Example 1152]	> 1
CCN(CC)CCCC(C)NCc1nc(-c2ccc(F)cc2)c(-c2nc(C(=O)NC(C)C)cs2)o1 (stereo not drawn) [Example 1153]	> 1
CC(C)NC(=O)c1csc(-c2oc(CNCc3ccc(F)c(Cl)c3)nc2-c2ccc(F)cc2)n1 [Example 1154]	> 1
CC(C)NC(=O)c1csc(-c2oc(CN(CCC#N)Cc3ccccc3)nc2-c2ccc(F)cc2)n1 [Example 1155]	> 1
CC(C)NC(=O)c1csc(-c2oc(CNCCNC(=O)OC(C)(C)C)nc2-c2ccc(F)cc2)n1 [Example 1156]	> 1
CC(C)NC(=O)c1csc(-c2oc(CNCCc3c[nH]c4ccccc34)nc2-c2ccc(F)cc2)n1 [Example 1157]	> 1
CC(C)NC(=O)c1csc(-c2oc(CNCc3ccc(C(C)(C)C)cc3)nc2-c2ccc(F)cc2)n1 [Example 1158]	> 1
CC(C)NC(=O)c1csc(-c2oc(CNCCCN(C)c3ccccc3)nc2-c2ccc(F)cc2)n1 [Example 1159]	> 1
CC(C)NC(=O)c1csc(-c2oc(CNCC3(O)CCCCC3)nc2-c2ccc(F)cc2)n1 [Example 1160]	> 1
COc1cc(CNCc2nc(-c3ccc(F)cc3)c(-c3nc(C(=O)NC(C)C)cs3)o2)cc(OC)c1 [Example 1161]	> 1
COc1ccc(CNCc2nc(-c3ccc(F)cc3)c(-c3nc(C(=O)NC(C)C)cs3)o2)cc1OC [Example 1162]	> 1
CC(C)NC(=O)c1csc(-c2oc(CNCC(=O)c3ccccc3)nc2-c2ccc(F)cc2)n1 [Example 1163]	> 1
